We go through 8 compounds from US20230399342A1 (Incyte Corporation, priority 2022, published 2023).

One test concerns the target DGKζ (Homo sapiens (Human), UniProt Q13574). The test can be described thus: In vitro DGKζ inhibition assay (ADP-Glo). The test is classed as biochemical. Conditions: His-tagged human recombinant enzyme, 0.4 nM DGK, 30 μM ATP, 20 μM DLG, 90 minute incubation. The procedure, abridged:
(§1)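 His-tagged human DGKα (0.1 nM, 50 μM ATP) or DGKζ (0.4 nM, 30 μM ATP), each with 20 μM DLG, in Tris pH 7.5 buffer with CHAPS, Mg2+, Ca2+.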

The target in another test is DGKα (Homo sapiens (Human), UniProt P23743). As to the kind of experiment: In vitro DGKα inhibition assay (ADP-Glo). It is filed as biochemical. As to conditions: His-tagged human recombinant enzyme, 0.1 nM DGKα, 50 μM ATP, 20 μM DLG, 90 minute incubation. In a few lines:
as §1

Sequence of DGKζ (Q13574 whole entry): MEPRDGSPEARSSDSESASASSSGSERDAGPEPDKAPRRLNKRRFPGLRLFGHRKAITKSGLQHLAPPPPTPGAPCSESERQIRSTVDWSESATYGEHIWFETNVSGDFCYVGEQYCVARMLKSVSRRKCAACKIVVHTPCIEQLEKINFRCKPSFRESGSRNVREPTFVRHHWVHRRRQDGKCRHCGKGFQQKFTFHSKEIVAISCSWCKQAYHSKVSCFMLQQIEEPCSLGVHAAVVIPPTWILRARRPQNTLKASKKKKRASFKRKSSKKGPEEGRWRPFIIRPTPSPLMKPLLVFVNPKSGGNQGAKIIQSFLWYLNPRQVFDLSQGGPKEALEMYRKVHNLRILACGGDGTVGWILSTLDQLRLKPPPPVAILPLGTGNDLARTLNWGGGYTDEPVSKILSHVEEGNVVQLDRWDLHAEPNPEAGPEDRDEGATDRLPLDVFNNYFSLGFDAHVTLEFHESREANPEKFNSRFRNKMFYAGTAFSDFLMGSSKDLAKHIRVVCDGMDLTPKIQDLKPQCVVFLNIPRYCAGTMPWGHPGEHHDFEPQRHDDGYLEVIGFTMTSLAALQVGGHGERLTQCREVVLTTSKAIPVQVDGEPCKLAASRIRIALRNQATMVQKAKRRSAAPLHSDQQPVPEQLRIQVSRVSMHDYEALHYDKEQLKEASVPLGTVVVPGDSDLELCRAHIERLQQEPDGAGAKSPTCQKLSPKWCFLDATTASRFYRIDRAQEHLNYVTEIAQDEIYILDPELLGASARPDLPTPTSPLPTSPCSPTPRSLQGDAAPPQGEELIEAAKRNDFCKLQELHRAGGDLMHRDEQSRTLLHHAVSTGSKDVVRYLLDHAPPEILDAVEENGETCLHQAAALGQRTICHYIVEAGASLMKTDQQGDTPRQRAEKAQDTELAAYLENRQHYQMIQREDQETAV
Sequence of DGKα (P23743 whole entry): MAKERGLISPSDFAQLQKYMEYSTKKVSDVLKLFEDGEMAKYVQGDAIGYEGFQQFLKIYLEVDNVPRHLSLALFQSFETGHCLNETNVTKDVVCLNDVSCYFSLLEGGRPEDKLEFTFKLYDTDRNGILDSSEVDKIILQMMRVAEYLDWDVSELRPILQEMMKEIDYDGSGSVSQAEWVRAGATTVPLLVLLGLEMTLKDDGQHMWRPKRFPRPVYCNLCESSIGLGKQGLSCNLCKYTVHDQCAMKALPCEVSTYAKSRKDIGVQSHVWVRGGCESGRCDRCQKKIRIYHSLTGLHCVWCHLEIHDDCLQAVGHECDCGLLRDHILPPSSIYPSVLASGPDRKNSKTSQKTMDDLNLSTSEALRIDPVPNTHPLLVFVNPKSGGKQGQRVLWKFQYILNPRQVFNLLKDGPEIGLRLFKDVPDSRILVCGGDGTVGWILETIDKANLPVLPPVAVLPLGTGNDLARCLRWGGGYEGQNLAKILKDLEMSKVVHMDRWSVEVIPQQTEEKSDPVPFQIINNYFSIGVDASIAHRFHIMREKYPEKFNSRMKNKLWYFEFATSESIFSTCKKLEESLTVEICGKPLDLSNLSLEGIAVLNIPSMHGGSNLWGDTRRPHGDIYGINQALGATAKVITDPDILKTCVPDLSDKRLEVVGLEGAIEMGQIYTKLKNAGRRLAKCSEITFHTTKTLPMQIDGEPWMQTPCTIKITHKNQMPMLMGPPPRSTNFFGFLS

By IC50 is commonly meant the concentration that gives 50% inhibition. With `Cc1nc2c(N3C[C@@H](C)N([C@@H](c4cccc(C(F)(F)F)c4)C(C)C)C[C@@H]3C)nc3nncn3c2n1C[C@@H]1CCCO1` [Example 70, 4-((2S,5R)-2,5-dimethyl-4-((R)-2-methyl-1-(3-(trifluoromethyl)phenyl)propyl)piperazin-1-yl)-2-methyl-1-(((S)-tetrahydrofuran-2-yl)methyl)-1H-[1,2,4]triazolo[3,4-b]purine], the IC50 at DGKζ and at DGKα was ≤ 0.02 µM each time.
On to `Cc1nc2c(N3C[C@@H](C)N([C@@H](c4ccc(OC(F)F)cc4F)C(C)C)C[C@@H]3C)nc3nncn3c2n1C[C@@H]1CCCO1` [Example 76, 4-((2S,5R)-4-((R)-1-(4-(difluoromethoxy)-2-fluorophenyl)-2-methylpropyl)-2,5-dimethylpiperazin-1-yl)-2-methyl-1-(((S)-tetrahydrofuran-2-yl)methyl)-1H-[1,2,4]triazolo[3,4-b]purine], for which the IC50 on DGKζ and on DGKα was ≤ 0.02 µM each time.
For `Cc1nc2c(N3C[C@@H](C)N(C(c4ccc(F)c(C(F)F)c4)C(C)C)C[C@@H]3C)nc3nncn3c2n1C[C@@H]1CCCO1` (stereo partly drawn) [Example 82, 4-((2S,5R)-4-(1-(3-(Difluoromethyl)-4-fluorophenyl)-2-methylpropyl)-2,5-dimethylpiperazin-1-yl)-2-methyl-1-(((S)-tetrahydrofuran-2-yl)methyl)-1H-[1,2,4]triazolo[3,4-b]purine], the IC50 at DGKζ and on DGKα was ≤ 0.02 µM each time.
In the case of `C[C@@H]1CN(c2nc3nncn3c3c2ncn3CCN(C)C)[C@@H](C)CN1C(c1ccc(C(F)(F)F)cn1)c1ccc(C(F)(F)F)cn1` [Example 112, 2-(4-((2S,5R)-4-(Bis(5-(trifluoromethyl)pyridin-2-yl)methyl)-2,5-dimethylpiperazin-1-yl)-1H-[1,2,4]triazolo[3,4-b]purin-1-yl)-N,N-dimethylethan-1-amine], the IC50 on DGKζ and at DGKα was ≤ 0.02 µM throughout.
Turning to `C[C@@H]1CN(c2nc3nncn3c3c2nnn3C[C@@H]2CCCO2)[C@@H](C)CN1C(c1ccc(Br)cc1)c1ccc(Br)cc1` [Example 111, 4-((2S,5R)-4-(Bis(4-bromophenyl)methyl)-2,5-dimethylpiperazin-1-yl)-1-(((S)-tetrahydrofuran-2-yl)methyl)-1H-[1,2,3]triazolo[4,5-e][1,2,4]triazolo[4,3-a]pyrimidine], the IC50 on DGKζ and on DGKα was ≤ 0.02 µM each time.
For the compound `CC[C@@H]1CN(c2nc3nncn3c3c2nnn3C[C@@H]2CCCO2)[C@@H](C)CN1C(c1ccc(Cl)cc1)c1ccc(Cl)cc1` [Example 39, 4-((2S,5R)-4-(Bis(4-chlorophenyl)methyl)-5-ethyl-2-methylpiperazin-1-yl)-1-(((S)-tetrahydrofuran-2-yl)methyl)-1H-[1,2,3]triazolo[4,5-e][1,2,4]triazolo[4,3-a]pyrimidine], the IC50 at DGKζ and on DGKα was ≤ 0.02 µM each time.
Regarding `CC[C@@H]1CN(c2nc3nncn3c3c2nc(C)n3C[C@@H]2CCCO2)[C@@H](C)CN1[C@H](c1ccc(OC(F)(F)F)cc1)C(C)C` [Example 130, 4-((2S,5R)-5-ethyl-2-methyl-4-((S)-2-methyl-1-(4-(trifluoromethoxy)phenyl)propyl)piperazin-1-yl)-2-methyl-1-(((S)-tetrahydrofuran-2-yl)methyl)-1H-[1,2,4]triazolo[3,4-b]purine], the concentration for half-maximal inhibition (IC50) at DGKζ and on DGKα was ≤ 0.02 µM in each case.
Consider `CC[C@@H]1CN(c2nc3nncn3c3c2nc(C)n3C[C@H]2CCCO2)[C@@H](C)CN1C(c1ccc(Cl)cc1)c1ccc(Cl)cc1` [Example 42, 4-((2S,5R)-4-(Bis(4-chlorophenyl)methyl)-5-ethyl-2-methylpiperazin-1-yl)-2-methyl-1-(((R)-tetrahydrofuran-2-yl)methyl)-1H-[1,2,4]triazolo[3,4-b]purine], for which the IC50 at DGKζ and on DGKα was ≤ 0.02 µM throughout.
